Measurements as given in paper PMC5863515, “Re-evaluation of Adrenocorticotropic Hormone and Melanocyte Stimulating Hormone Activation of GPR139 in Vitro” (Frontiers in Pharmacology, 2018).
Like-named read-outs stand apart in the source and are kept apart here.

Key:
MC4R + GPR139 = MC4R + GPR139 (Homo sapiens, UniProt Q6DWJ6); assay: Calcium mobilization, HEK-293 transiently expressing MC4R + GPR139; assay type: cell-based
Description: (§1) Human MC3R (NM_019888), MC4R (NM_005912), and MC5R (NM_005913) were transiently expressed in HEK-293 cells with and without human GPR139 (KR081941) or the chimeric G-protein Gα16. All genes were cloned into pCIneo (Promega, Madison, WI, United States, #E1841). HEK-293 cells were cultured in DMEM/F12 (Gibco, Grand Island, NY, United States, #11039-021), 10% FBS (Hyclone, Logan, UT, United States, # SH300700.03), 50 units/ml penicillin and 50 μg/ml streptomycin (Mediatech, Manassas, VA, United States, #30-001-CI). Cells were seeded at 4 × 10^6 cells in 10 cm dishes and allowed to grow overnight at 37°C, 5% CO2. On the day of transfection, culture media was replaced with F12-K (Mediatech, Manassas, VA, United States, #10-025-CV), 10% FBS, 20 mM HEPES (Hyclone, Logan, UT, United States, #SH30237.01) and transfected with 15 μg DNA (10 μg MCR:5 μg pCIneo, 10 μg MCR:5 μg Gα16 or 7.5 μg MCR:7.5 μg GPR139) using FuGene HD (Promega, Madison, WI, United States, #E2311) according to manufacturer’s instructions. MC3R, MC4R, and MC5R were also transiently expressed in the following GPR139 stably expressing cell lines using the FuGENE HD method: HEK-293 GPR139 clone#33, CHO-TREx GPR139 clone#18, and SK-N-MC/CRE TREx GPR139 clone#35. Stable cell lines were established according to method previously described ([Liu et al., 2015]).
(§2) Intracellular calcium mobilization was measured with the BD calcium kit (BD Bioscience, San Jose, CA, United States). The recombinant cell lines expressing MC3R, MC4R, and MC5R with and without GPR139 or Gα16 were seeded in culture media at a density of 50,000 cells/well into 96-well black/clear-bottom poly-D-lysine treated tissue culture plates. Cells were incubated overnight at 37°C and 5% CO2. Next day, culture media was removed and cells were washed with HBSS prior to dye-loading for 1 h at 37°C and 5% CO2. Agonist stimulation and intracellular calcium measurements were done on the FLIPR Tetra (Molecular Devices, Sunnyvale, CA, United States). For receptor inhibition analysis, antagonists (1 μM HS-024 or 10 μM JNJ-3792165) were added off-line 15 min prior to agonist addition on the Tetra. For G-protein inhibitor experiments, cells were treated with 1 μM YM-254890 for 5 min prior to agonist additions on the Tetra. […] Responses in Figure 6 were normalized to its respective agonist response without antagonist. EC50s were calculated by fitting a three-parameter logistic curve using least-squares non-linear regression analysis as implemented in Graphpad Prism 7.0.

GPR139 [1] = biological target: T1, GPR139 (Homo sapiens, UniProt Q6DWJ6); assay: [3H]JNJ-63533054 radioligand binding assay, membranes of CHO-TREx cells stably expressing human GPR139; set-up: expressed in transfected cells; host or cells: CHO-TREx GPR139 clone#18
T1 sequence (Q6DWJ6 1-353): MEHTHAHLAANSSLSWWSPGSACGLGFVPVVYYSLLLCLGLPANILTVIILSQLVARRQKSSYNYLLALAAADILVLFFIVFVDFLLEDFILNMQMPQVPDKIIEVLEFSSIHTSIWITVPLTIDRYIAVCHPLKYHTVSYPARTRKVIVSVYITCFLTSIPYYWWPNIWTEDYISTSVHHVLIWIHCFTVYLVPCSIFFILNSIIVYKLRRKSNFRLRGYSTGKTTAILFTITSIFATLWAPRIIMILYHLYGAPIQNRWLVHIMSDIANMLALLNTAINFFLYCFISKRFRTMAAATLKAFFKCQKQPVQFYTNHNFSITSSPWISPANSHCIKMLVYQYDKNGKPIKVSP
Description: Reaction was terminated by filtration through GF/C filterplates pre-treated with PEI (polyethyleneimine) followed by washes with ice-cold TE buffer. Filterplates were dried in a 60°C oven followed by addition of Microscint-0. Bound radioactivity was read on a Topcount scintillation counter. […] Half-maximal inhibitory concentrations (IC50s) of test compounds were calculated by fitting a three-parameter logistic curve using least-squares non-linear regression analysis as implemented in Graphpad Prism 7.0. The Top plateau was fixed at 100 and the Bottom was fixed at 0.

GPR139 + MC5R = GPR139 + MC5R (Homo sapiens, UniProt Q6DWJ6); assay: Calcium mobilization, stable GPR139-HEK-293 cell line transiently expressing MC5R; assay type: cell-based
GPR139 + MC5R, sequence (P33032 whole entry partner, one chain of several): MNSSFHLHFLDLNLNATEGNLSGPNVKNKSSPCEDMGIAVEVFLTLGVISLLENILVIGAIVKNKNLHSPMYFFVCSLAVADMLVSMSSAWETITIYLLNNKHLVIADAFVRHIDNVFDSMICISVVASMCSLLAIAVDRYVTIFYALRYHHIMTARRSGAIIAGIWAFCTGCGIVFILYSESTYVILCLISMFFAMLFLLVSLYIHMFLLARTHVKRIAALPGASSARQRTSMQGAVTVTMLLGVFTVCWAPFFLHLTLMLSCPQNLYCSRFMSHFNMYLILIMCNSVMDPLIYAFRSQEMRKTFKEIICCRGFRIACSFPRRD
Description: as §1
(§3) Intracellular calcium mobilization was measured with the BD calcium kit (BD Bioscience, San Jose, CA, United States). The recombinant cell lines expressing MC3R, MC4R, and MC5R with and without GPR139 or Gα16 were seeded in culture media at a density of 50,000 cells/well into 96-well black/clear-bottom poly-D-lysine treated tissue culture plates. Cells were incubated overnight at 37°C and 5% CO2. Next day, culture media was removed and cells were washed with HBSS prior to dye-loading for 1 h at 37°C and 5% CO2. […] EC50s were calculated by fitting a three-parameter logistic curve using least-squares non-linear regression analysis as implemented in Graphpad Prism 7.0.

GPR139 + MC4R = GPR139 + MC4R (Homo sapiens, UniProt Q6DWJ6); assay: Calcium mobilization, stable GPR139-HEK-293 cell line transiently expressing MC4R; assay type: cell-based
GPR139 + MC4R, sequence (P32245 whole entry partner, one chain of several): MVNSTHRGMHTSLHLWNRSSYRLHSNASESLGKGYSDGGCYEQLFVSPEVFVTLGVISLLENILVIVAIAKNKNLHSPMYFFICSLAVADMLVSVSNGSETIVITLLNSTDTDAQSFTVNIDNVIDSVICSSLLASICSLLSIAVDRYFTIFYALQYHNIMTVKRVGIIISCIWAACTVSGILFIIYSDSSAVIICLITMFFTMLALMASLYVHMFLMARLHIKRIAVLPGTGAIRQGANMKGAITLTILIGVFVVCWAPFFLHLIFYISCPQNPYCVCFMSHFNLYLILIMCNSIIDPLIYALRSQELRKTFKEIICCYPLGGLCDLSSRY
Description: as §1, §3

GPR139 [2] = biological target: T1, GPR139; assay: Calcium mobilization, CHO-TREx cells stably expressing human GPR139; assay type: cell-based; set-up: expressed in transfected cells; host or cells: CHO-TREx GPR139 clone#18
MC5R = biological target: T2, MC5R (Homo sapiens, UniProt P33032); assay: Calcium mobilization, HEK-293 transiently expressing MC5R; assay type: cell-based; settings: HEK-293 transient; read-out: Agonist potency (pEC50), MC5R (converted)
T2 construct: expressed in transfected cells; host or cells: HEK-293, pCIneo, transient (FuGene HD)
T2 sequence (P33032 whole entry): as the sequence (P33032 whole entry partner, one chain of several) above
Description: as §1, §3

MC4R = biological target: T3, MC4R (Homo sapiens, UniProt P32245); assay: Calcium mobilization, HEK-293 transiently expressing MC4R; assay type: cell-based
T3 construct: expressed in transfected cells; host or cells: HEK-293, pCIneo, transient (FuGene HD)
T3 sequence (P32245 whole entry): as the sequence (P32245 whole entry partner, one chain of several) above
Description: as §1, §2

MC5R + Gα16 = biological target: T4, MC5R + Gα16 (Homo sapiens, UniProt P33032); assay: Calcium mobilization, HEK-293 transiently expressing MC5R + Gα16; assay type: cell-based; settings: HEK-293 transient; read-out: Agonist potency (pEC50), MC5R + Gα16 (converted)
T4 construct: expressed in transfected cells; host or cells: HEK-293, pCIneo, transient (10 μg MCR:5 μg Gα16)
T4 sequence (P33032 whole entry): as the sequence (P33032 whole entry partner, one chain of several) above
Description: as §1, §3

MC3R = biological target: T5, MC3R (Homo sapiens, UniProt P41968); assay: Calcium mobilization, HEK-293 transiently expressing MC3R; assay type: cell-based
T5 construct: expressed in transfected cells; host or cells: HEK-293, pCIneo, transient (FuGene HD)
T5 sequence (P41968 whole entry): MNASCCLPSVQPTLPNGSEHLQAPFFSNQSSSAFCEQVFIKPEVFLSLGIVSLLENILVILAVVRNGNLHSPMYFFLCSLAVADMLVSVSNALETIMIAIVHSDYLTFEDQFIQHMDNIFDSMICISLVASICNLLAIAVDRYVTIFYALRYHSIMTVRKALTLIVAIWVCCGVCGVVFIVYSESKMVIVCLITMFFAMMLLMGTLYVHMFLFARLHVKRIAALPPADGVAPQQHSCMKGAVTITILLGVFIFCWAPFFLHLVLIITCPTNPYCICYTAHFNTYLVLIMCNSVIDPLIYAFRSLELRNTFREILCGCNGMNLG
Description: as §1, §3

GPR139 [3] = biological target: T1, GPR139; assay: Calcium mobilization, HEK-293 cells stably expressing human GPR139; assay type: cell-based; set-up: expressed in transfected cells
Description: as §1, §2

MC3R + GPR139 = MC3R + GPR139 (Homo sapiens, UniProt Q6DWJ6); assay: Calcium mobilization, HEK-293 transiently expressing MC3R + GPR139; assay type: cell-based
MC3R + GPR139, sequence (P41968 whole entry partner, one chain of several): as the sequence (P41968 whole entry) above
Description: Intracellular calcium mobilization was measured with the BD calcium kit (BD Bioscience, San Jose, CA, United States). The recombinant cell lines expressing MC3R, MC4R, and MC5R with and without GPR139 or Gα16 were seeded in culture media at a density of 50,000 cells/well into 96-well black/clear-bottom poly-D-lysine treated tissue culture plates. Cells were incubated overnight at 37°C and 5% CO2. Next day, culture media was removed and cells were washed with HBSS prior to dye-loading for 1 h at 37°C and 5% CO2. Agonist stimulation and intracellular calcium measurements were done on the FLIPR Tetra (Molecular Devices, Sunnyvale, CA, United States). […] EC50s were calculated by fitting a three-parameter logistic curve using least-squares non-linear regression analysis as implemented in Graphpad Prism 7.0.

GPR139 + MC3R = biological target: T6, GPR139 + MC3R (Homo sapiens, UniProt Q6DWJ6); assay: Calcium mobilization, stable GPR139-HEK-293 cell line transiently expressing MC3R; assay type: cell-based
T6 construct: expressed in transfected cells; host or cells: HEK-293 GPR139 clone#33, MC3R transient (FuGENE HD)
T6 sequence (Q6DWJ6 1-353): T1 sequence (Q6DWJ6 1-353)
Description: as §1, §3

MC5R + GPR139 = MC5R + GPR139 (Homo sapiens, UniProt Q6DWJ6); assay: Calcium mobilization, HEK-293 transiently expressing MC5R + GPR139; assay type: cell-based
MC5R + GPR139, sequence (P33032 whole entry partner, one chain of several): as the sequence (P33032 whole entry partner, one chain of several) above
Description: as §1, §2

[4] = 10 nM radioligand, CHO-TREx GPR139 membranes, read-out: pKi, displacement of [3H]JNJ-63533054 (converted)
[5] = CHO-TREx stable GPR139, read-out: pEC50, calcium mobilization (converted)
[6] = HEK-293 transient, read-out: Agonist potency (pEC50), MC4R (converted)
[7] = HEK-293 transient, read-out: Agonist potency (pEC50), MC3R (converted)
[8] = HEK-293 stable GPR139, read-out: pEC50, calcium mobilization (converted)
[9] = read-out: Agonist potency (pEC50), stable GPR139-HEK-293 + MC3R (converted)

MC4R + GPR139, sequence (P32245 whole entry partner, one chain of several): as the sequence (P32245 whole entry partner, one chain of several) above

Structure (SMILES) | EC50 (MC4R + GPR139) [µM] | Agonist potency (pEC50), MC4R + GPR139, No antagonist (MC4R + GPR139) | EC50 (GPR139 + MC5R) [µM] | EC50 (GPR139 + MC4R) [µM] | EC50 (MC5R) [µM] | EC50 (MC5R + Gα16) [µM] | EC50 (MC3R + GPR139) [µM] | Agonist potency (pEC50), MC3R + GPR139, No antagonist (MC3R + GPR139) | EC50 (MC5R + GPR139) [µM] | Agonist potency (pEC50), MC5R + GPR139, No antagonist (MC5R + GPR139) | Ki (GPR139 [1]; [4]) [µM] | EC50 (GPR139 [2]; [5]) [µM] | EC50 (MC4R; [6]) [µM] | EC50 (MC3R; [7]) [µM] | EC50 (GPR139 [3]; [8]) [µM] | EC50 (GPR139 + MC3R; [9]) [µM] | also measured
COc1cc(OC)cc(C(=O)NNC(=O)Nc2cccc3ccccc23)c1 [TC-O9311] | 0.0661 | 7.18 ± 0.08 | 0.0417 | 0.0617 | > 10 | > 10 | 0.0692 | 7.16 ± 0.08 | 0.0372 | 7.43 ± 0.06 |  |  |  |  |  |  | Ki (GPR139 [1]): 0.0891 µM; EC50 (GPR139 [2]): 0.0398 µM; EC50 (MC4R): > 10 µM; EC50 (MC3R): > 10 µM; EC50 (GPR139 [3]): 0.0776 µM; EC50 (GPR139 + MC3R): 0.0501 µM
N[C@@H](Cc1c[nH]c2ccccc12)C(=O)O [L-Trp, L-tryptophan] | 93.3 | 4.03 ± 0.05 | 162 | 138 | > 3160 | > 3160 | 87.1 | 4.06 ± 0.06 | 95.5 | 4.02 ± 0.07 | 646 | 123 | > 3160 | > 3160 | 204 | 126 | 
C[C@H](NC(=O)CNC(=O)c1cccc(Cl)c1)c1ccccc1 [JNJ-63533054, 3-chloro-N-[2-oxo-2-[[(1S)-1-phenylethyl]amino]ethyl]benzamide] | 0.0355 | 7.45 ± 0.09 |  | 0.0174 | > 10 | > 10 | 0.0372 | 7.43 ± 0.09 | 0.0209 | 7.68 ± 0.08 | 0.0347 | 0.0132 | > 10 | > 10 | 0.0214 | 0.0204 | Agonist potency (pEC50), stable GPR139-HEK-293 + MC5R (GPR139 + MC5R): 7.80 ± 0.07
